# Assay results: patent US6730691B1, “Uses of alpha adrenergic blocking agents” (priority 2000, dated 2004)
# Structures can show the parent of a compound that is named as a salt.
# Legend:
# [1] = system: patients who had undergone radial keratotomy and who each experienced glare and halos; experiment: Topical thymoxamine ophthalmic solution in patients after radial keratotomy; format: in vivo, human; conditions: two radial keratotomy patients; similarly treated with 0.5% by weight solution
# [2] = system: subjects who had undergone surgical implantation of a refractive intraocular lens, experiencing photophobia, glare, secondary images and haloing; experiment: Topical thymoxamine ophthalmic solution in subjects after implantation of a refractive intraocular lens; format: in vivo, human; conditions: three subjects
# Method: A suitable ophthalmic solution was prepared containing about 0.5% by weight thymoxamine by the Moorfields Eye Hospital, London, England having the following composition: Applicant believes that the aqueous ophthalmic solution was prepared by dissolving the sodium acetate, boric acid and phenylmercuric nitrate in most of the purified water. Dissolution was promoted by heating the solution. Upon cooling the solution to room temperature, the thymoxamine hydrochloride was added and was dissolved without further heating. The remainder of the purified water was then added to reach a final volume of 100 ml. Sterilization of the solution was achieved by filtering it through a sterilizing filter. Three subjects, each of whom had undergone surgical implantation of a refractive intraocular lens, were selected for study. Each of the three subjects complained of experiencing photophobia, glare, secondary images and haloing, especially at night. Each of the three subjects received an approximately one drop dose twice daily of an ophthalmic solution containing 0.5% by weight of thymoxamine. […] Each of the subjects continued application of approximately a one drop dose on an as needed basis for a period of one month.
structure (smiles),measurement,setting,value
"CC(=O)Oc1cc(C(C)C)c(OCCN(C)C)cc1C [thymoxamine, thymoxamine hydrochloride]",glare and halos after treatment,[1],comparable results
same,induced myopia or headaches,"[2]; 0.5% by weight solution, one day period",without experiencing induced myopia or headaches
same,irritation from the topical application to the eye,[2]; after administration of a dosage of 0.5% by weight solution,mild irritation
same,undesirable visual anomalies once treatment was terminated,[2]; after termination of treatment,returned to each of the three subjects
same,undesirable visual anomaly during the usage period,[2]; approximately one drop as needed for one month,None of the subjects have experienced the previously complained of undesirable visual anomaly
same,"previously complained of undesirable visual anomaly (photophobia, glare, secondary images, haloing)","[2]; approximately one drop twice daily of 0.5% by weight solution, one day period",elimination of the previously complained of undesirable visual anomaly
